Measured values from PubChem BioAssay (NCI).
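These data come from cells grown in 96-well plates and exposed to compound for 48 hours at five concentrations. GI50 marks 50% less growth. TGI denotes the concentration required for complete inhibition of growth.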

Key:
Experiment in all cases: DTP human tumour cell line panel, 48 h
[1] = system: HCC-2998 colon
[2] = system: SNB-75 CNS
[3] = system: BT-549 breast
[4] = system: IGROV1 ovarian
[5] = system: OVCAR-5 ovarian
[6] = system: OVCAR-8 ovarian
[7] = system: KM12 colon
[8] = system: MDA-MB-435
[9] = system: RXF 393 renal
[10] = system: SK-MEL-28 melanoma
[11] = system: K-562 leukemia
[12] = system: SK-OV-3 ovarian
[13] = system: 786-0 renal
[14] = system: MOLT-4 leukemia
[15] = system: HCT-15 colon
[16] = system: T-47D breast
[17] = system: EKVX NSCLC
[18] = system: SF-539 CNS
[19] = system: HOP-92 NSCLC
[20] = system: UACC-62 melanoma
[21] = system: CCRF-CEM leukemia
[22] = system: UO-31 renal
[23] = system: SR leukemia
[24] = system: M14 melanoma
[25] = system: HS 578T breast
[26] = system: SW-620 colon
[27] = system: HOP-62 NSCLC
[28] = system: RPMI-8226 leukemia
[29] = system: COLO 205 colon
[30] = system: MDA-MB-231 breast
[31] = system: NCI-H460 lung
[32] = system: SF-268 CNS
[33] = system: NCI-H226 lung
[34] = system: NCI/ADR-RES ovarian
[35] = system: TK-10 renal
[36] = system: OVCAR-4 ovarian
[37] = system: UACC-257 melanoma
[38] = system: SK-MEL-5 melanoma
[39] = system: LOX IMVI melanoma
[40] = system: SN12C renal
[41] = system: OVCAR-3 ovarian
[42] = system: PC-3 prostate
[43] = system: MCF7 breast
[44] = system: HT29 colon
[45] = system: NCI-H522 lung
[46] = system: SF-295 CNS
[47] = system: ACHN renal
[48] = system: U251 CNS
[49] = system: SNB-19 CNS
[50] = system: SK-MEL-2 melanoma
[51] = system: A549 NSCLC
[52] = system: A498 renal
[53] = system: CAKI-1 renal
[54] = system: DU-145 prostate
[55] = system: NCI-H23 lung
[56] = system: HCT-116 colon
[57] = system: MALME-3M melanoma
[58] = system: HL-60(TB) leukemia

CCOC(=O)c1sc(=S)c2c(C(=O)OCC)c(C(=O)OCC)sc2c1C(=O)OCC was tested, and the GI50 [1] was 13.1 µM, the TGI [1] was 28.7 µM and the GI50 [2] was 40.3 µM. The TGI [2] was > 100 µM, the GI50 [3] was 21.5 µM and the TGI [3] was 45.4 µM. The GI50 [4] was 13.4 µM, the TGI [4] was 29.8 µM and the GI50 [5] was 17.6 µM. The TGI [5] was 35.7 µM, the GI50 [6] was 17.8 µM and the TGI [6] was 40 µM. For the same molecule, the GI50 [7] was 18.4 µM, the TGI [7] was 44.5 µM and the GI50 [8] was 27.4 µM. For the same molecule, the TGI [8] was 67.2 µM, the GI50 [9] was 13 µM and the TGI [9] was 39.4 µM. It also gave a GI50 [10] of 21.3 µM, a TGI [10] of 54.7 µM and a GI50 [11] of 10.6 µM. For the same molecule, the TGI [11] was 25.1 µM, the GI50 [12] was 43.3 µM and the TGI [12] was > 100 µM. It also gave a GI50 [13] of 20.4 µM, a TGI [13] of 44.5 µM and a GI50 [14] of 15.9 µM. For the same molecule, the TGI [14] was 42.3 µM, the GI50 [15] was 14.4 µM and the TGI [15] was 28.5 µM. For the same molecule, the GI50 [16] was 23.7 µM, the TGI [16] was 95.5 µM and the GI50 [17] was 21.5 µM. The TGI [17] was 43.4 µM, the GI50 [18] was 18.9 µM and the TGI [18] was 36.1 µM. It also gave a GI50 [19] of 10.3 µM, a TGI [19] of 23 µM and a GI50 [20] of 12.1 µM. It also gave a TGI [20] of 26.9 µM, a GI50 [21] of 19.1 µM and a TGI [21] of 61.7 µM. It also gave a GI50 [22] of 15.1 µM, a TGI [22] of 30.9 µM and a GI50 [23] of 15 µM. It also gave a TGI [23] of 35.4 µM, a GI50 [24] of 16.8 µM and a TGI [24] of 32.6 µM. For the same molecule, the GI50 [25] was 17.7 µM, the TGI [25] was 47.3 µM and the GI50 [26] was 23.7 µM. The TGI [26] was 56.4 µM, the GI50 [27] was 17.6 µM and the TGI [27] was 33.4 µM. It also gave a GI50 [28] of 7.88 µM, a TGI [28] of 28 µM and a GI50 [29] of 27.6 µM. The TGI [29] was > 100 µM, the GI50 [30] was 14.6 µM and the TGI [30] was 32.7 µM. The GI50 [31] was 21.4 µM, the TGI [31] was 51.2 µM and the GI50 [32] was 16.4 µM. For the same molecule, the TGI [32] was 33.9 µM, the GI50 [33] was 10.9 µM and the TGI [33] was 26.7 µM. For the same molecule, the GI50 [34] was 17.3 µM, the TGI [34] was 35.9 µM and the GI50 [35] was 5.85 µM. The TGI [35] was 39.4 µM, the GI50 [36] was 20.7 µM and the TGI [36] was 56.9 µM. For the same molecule, the GI50 [37] was 15.1 µM, the TGI [37] was 39 µM and the GI50 [38] was 16.4 µM. The TGI [38] was 32.9 µM, the GI50 [39] was 14.1 µM and the TGI [39] was 27.9 µM. It also gave a GI50 [40] of 11.2 µM, a TGI [40] of 26.7 µM and a GI50 [41] of 16 µM. For the same molecule, the TGI [41] was 68 µM, the GI50 [42] was 8.17 µM and the TGI [42] was 21.2 µM. For the same molecule, the GI50 [43] was 15.2 µM, the TGI [43] was 29.9 µM and the GI50 [44] was 28 µM. The TGI [44] was > 100 µM, the GI50 [45] was 10.6 µM and the TGI [45] was 26.4 µM. It also gave a GI50 [46] of 31.4 µM, a TGI [46] of 94.8 µM and a GI50 [47] of 16.6 µM. For the same molecule, the TGI [47] was 39.4 µM, the GI50 [48] was 12.7 µM and the TGI [48] was 26.5 µM. The GI50 [49] was 32.2 µM, the TGI [49] was > 100 µM and the GI50 [50] was 21.2 µM. For the same molecule, the TGI [50] was 44.7 µM, the GI50 [51] was 16.4 µM and the TGI [51] was 42.8 µM. It also gave a GI50 [52] of 18.2 µM, a TGI [52] of 33.9 µM and a GI50 [53] of 26.5 µM. For the same molecule, the TGI [53] was 93.9 µM, the GI50 [54] was 17.4 µM and the TGI [54] was 39 µM. The GI50 [55] was 17.4 µM, the TGI [55] was 35.5 µM and the GI50 [56] was 18 µM. For the same molecule, the TGI [56] was 40 µM.

Nc1ncnc2c1ncn2CC(CO)CC(c1ccccc1)P(=O)(O)O (stereo unspecified) was tested, and the TGI [24] was 1.64 µM.

In the case of C[C@@H]1C=C2C(=O)O[C@@H]3CC[C@H](C1)[C@]23O, the GI50 [1] is reported as 16.9 µM, the TGI [1] is reported as 32.9 µM and the GI50 [2] is reported as 3.33 µM. It also gave a TGI [2] of 20.2 µM, a GI50 [3] of 4.4 µM and a TGI [3] of 17.3 µM. It also gave a GI50 [57] of 4.18 µM, a TGI [57] of 23.3 µM and a GI50 [4] of 2.87 µM. It also gave a TGI [4] of 10.4 µM, a GI50 [5] of 2.82 µM and a TGI [5] of 10.8 µM. For the same molecule, the GI50 [6] was 4.04 µM, the TGI [6] was 28.6 µM and the GI50 [7] was 21.8 µM. It also gave a TGI [7] of 61.6 µM, a GI50 [8] of 3.39 µM and a TGI [8] of 13.7 µM. For the same molecule, the TGI [9] was 7.97 µM, the GI50 [10] was 6.17 µM and the TGI [10] was 25.8 µM. For the same molecule, the GI50 [11] was 2.7 µM, the TGI [11] was 34.6 µM and the GI50 [12] was 15.5 µM. It also gave a TGI [12] of 64.3 µM, a GI50 [13] of 4.29 µM and a TGI [13] of 17.7 µM. It also gave a GI50 [14] of 3.08 µM, a TGI [14] of 21 µM and a GI50 [15] of 3 µM. It also gave a TGI [15] of 18.1 µM, a GI50 [16] of 3.02 µM and a TGI [16] of 15.1 µM. The GI50 [18] was 3.18 µM, the TGI [18] was 11.9 µM and the GI50 [20] was 4.78 µM. For the same molecule, the TGI [20] was 19.6 µM, the GI50 [21] was 2.66 µM and the TGI [21] was 11.5 µM. The GI50 [22] was 3.74 µM, the TGI [22] was 16.7 µM and the GI50 [23] was 3.51 µM. For the same molecule, the TGI [23] was 19.6 µM, the GI50 [24] was 4.28 µM and the TGI [24] was 22.8 µM. The GI50 [25] was 12.7 µM, the TGI [25] was > 100 µM and the TGI [26] was 12.8 µM. It also gave a GI50 [27] of 17.8 µM, a TGI [27] of 63.1 µM and a GI50 [28] of 2.93 µM. The TGI [28] was 10.7 µM, the GI50 [29] was 4.64 µM and the TGI [29] was 15.7 µM. It also gave a GI50 [30] of 3.96 µM, a TGI [30] of 17.4 µM and a TGI [31] of 32 µM. For the same molecule, the GI50 [32] was 5.24 µM, the TGI [32] was 30.4 µM and the GI50 [33] was 7.02 µM. The TGI [33] was 40 µM, the GI50 [34] was 11.9 µM and the TGI [34] was 95.8 µM. The GI50 [36] was 5.45 µM, the TGI [36] was 45.3 µM and the GI50 [37] was 2.33 µM. It also gave a TGI [37] of 16.2 µM, a TGI [58] of 5.71 µM and a GI50 [38] of 10.9 µM. The TGI [38] was 24 µM, the GI50 [39] was 3.33 µM and the TGI [39] was 13.3 µM. The GI50 [40] was 5.65 µM, the TGI [40] was 31.2 µM and the GI50 [41] was 3.44 µM. It also gave a TGI [41] of 11.1 µM, a GI50 [42] of 3.68 µM and a TGI [42] of 14.9 µM. For the same molecule, the GI50 [43] was 2.5 µM, the TGI [43] was 13.3 µM and the GI50 [44] was 3.46 µM. It also gave a TGI [44] of 13.4 µM, a GI50 [45] of 2.24 µM and a TGI [45] of 9.43 µM. The GI50 [46] was 13.6 µM, the TGI [46] was 35.3 µM and the GI50 [47] was 3.93 µM. For the same molecule, the TGI [47] was 16.9 µM, the GI50 [48] was 13.9 µM and the TGI [48] was 27.5 µM. It also gave a GI50 [49] of 22.9 µM, a TGI [49] of 93.8 µM and a TGI [50] of 11.4 µM. The GI50 [51] was 12.7 µM, the TGI [51] was 47 µM and the TGI [52] was 38.3 µM. The TGI [53] was 12.7 µM, the GI50 [54] was 2.14 µM and the TGI [54] was 5.78 µM. For the same molecule, the GI50 [55] was 4.33 µM, the TGI [55] was 23 µM and the GI50 [56] was 3.13 µM. It also gave a TGI [56] of 13.8 µM.
